Assay results taken from patent publication US6989399B2, “Antiamyloid phenylsulfonamides: N-alkanol derivatives” (Bristol-Myers Squibb Company, priority 2002, dated 2006).

The compounds below were run against T1, γ-secretase (Homo sapiens, UniProt P49768) (assay: Isolated membrane γ-secretase assay, time-resolved fluorescence detection of Aβ). Conditions: isolated membranes, about 90 minutes at 37 degrees C; read-out: Activity (IC50), Inhibition of β-Amyloid Peptide.
T1 construct: The endogenous γ-secretase present in the isolated membranes; endogenous in cells; host or cells: isolated membrane fraction of human-derived cell lines such as HeLa and H4, stably transfected with β-APP substrate
Assay type: biochemical
Excerpt: The detection of γ-secretase activity requires assays capable of reliable, accurate and expedient detection of γ-secretase cleavage products, particularly Aβ. An isolated membrane fraction that contains functionally active γ-secretase and β-APP substrates can generate γ-secretase cleavage products including Aβ (Roberts et al., WO 01/75435; Fechteler et al., Patent Application No. DE 99-19941039 19990828; Shearman et al., Biochemistry, 39, p. 8698–8704 (2000); Zhang et al., Biochemistry, 40, p. 5049-5055 (2001)). An isolated membrane fraction can be prepared from human derived cell lines such as HeLa and H4 which have been transfected with wild type or mutant forms of β-APP or a human alkaline phosphatase β-APP fusion construct, and stably express high levels of γ-secretase substrates. The endogenous γ-secretase present in the isolated membranes prepared at 0–4 degrees C. cleaves the β-APP substrates when the membranes are shifted from 0–4 to 37 degrees C. […] 325–327 (1992), or by a preferred method using time-resolved fluorescence of the homogeneous sample containing membranes and Aβ (Roberts et al., WO 01/75435; Shearman et al., Biochemistry, 39, p. 8698–8704 (2000)). The Aβ present in a homogeneous sample containing membranes can be detected by time-resolved fluorescence with two antibodies that recognize different epitopes of Aβ. One of the antibodies recognizes an epitope that is present in Aβ but not present in the precursor fragments; preferably the antibody binds the carboxyl terminus of Aβ generated by the γ-secretase cleavage. The second antibody binds to any other epitope present on Aβ. For example, antibodies that bind the N-terminal region (e.g., 26D6-B2-B3® SIBIA Neurosciences, La Jolla, Calif.) or bind the C-terminal end (e.g., 9S3.2® antibody, Biosolutions, Newark, Del.) of the Aβ peptide are known. The antibodies are labeled with a pair of fluorescent adducts that transfer fluorescent energy when the adducts are brought in close proximity as a result of binding to the N- and C-terminal ends or regions of Aβ. A lack of fluorescence is indicative of the absence of cleavage products, resulting from inhibition of γ-secretase. The isolated membrane assay can be used to identify candidate agents that inhibit the activity of γ-secretase cleavage and Aβ production.
A typical membrane-based assay requires 45 μg membrane protein per well in a 96- or 384-well format. Membranes in a neutral buffer are combined with the test compound and shifted from 0–4 to 37 degrees C. Test agents may typically consist of synthetic compounds, secondary metabolites from bacterial or fungal fermentation extracts, or extracts from plant or marine samples. All synthetic agents are initially screened at doses ranging from 10–100 μM or in the case of extracts at sufficient dilution to minimize cytotoxicity. Incubation of the membranes with the test agent will continue for approximately 90 minutes at which time fluorescence labeled antibodies are added to each well for Aβ quantitation. The time-resolved fluorescence detection and quantitation of Aβ is described elsewhere (Roberts et al., WO 01/75435; Shearman et al., Biochemistry, 39, p. 8698–8704 (2000)). Results are obtained by analysis of the plate in a fluorescence plate reader and comparison to the mock treated membranes and samples in which known amounts of Aβ were added to construct a standard concentration curve. A positive acting compound is one that inhibits the Aβ relative to the control sample by at least 50% at the initial tested concentration. If a compound is found to be active then a dose response experiment is performed to determine the lowest dose of compound necessary to elicit the inhibition of the production of Aβ.
The Formula I compounds were tested in the assay described above and found to be active as inhibitors of γ-secretase. […]

Row | IC50 [nM] | Compound
1 | 50 to 200 | CCCC(O)[C@@H](C)N(c1cc(Cl)ccc1Cl)S(=O)(=O)c1ccc(Cl)cc1 (single isomer, unassigned) [Example 6A]
2 | 200 to 5000 | CCCC(O)[C@@H](C)N(c1cc(Cl)ccc1Cl)S(=O)(=O)c1ccc(Cl)cc1 (single isomer, unassigned) [Example 6B]
3 | 50 to 200 | CC(O)C(C)N(c1cc(Cl)ccc1Cl)S(=O)(=O)c1ccc(Cl)cc1 (single isomer, unassigned) [Example 9A]
4 | 200 to 5000 | Cc1cc(C)c(C(O)[C@@H](C)N(c2cc(Cl)ccc2Cl)S(=O)(=O)c2ccc(Cl)cc2)c(C)c1 (single isomer, unassigned) [Example 16A]
5 | 200 to 5000 | CC(C(O)CCc1ccccc1)N(c1cc(Cl)ccc1Cl)S(=O)(=O)c1ccc(Cl)cc1 (single isomer, unassigned) [Example 17A]
6 | 200 to 5000 | CC(C(O)CCc1ccccc1)N(c1cc(Cl)ccc1Cl)S(=O)(=O)c1ccc(Cl)cc1 (single isomer, unassigned) [Example 17B]
7 | 50 to 200 | C=CCCC(O)C(C)N(c1cc(Cl)ccc1Cl)S(=O)(=O)c1ccc(Cl)cc1 (single isomer, unassigned) [Example 18A]
8 | 200 to 5000 | C=CCCC(O)C(C)N(c1cc(Cl)ccc1Cl)S(=O)(=O)c1ccc(Cl)cc1 (single isomer, unassigned) [Example 18B]
9 | 50 to 200 | CC(O)C(C)N(c1cc(Cl)ccc1F)S(=O)(=O)c1ccc(Cl)cc1 (single isomer, unassigned) [Example 19A]
10 | 50 to 200 | C=CCCC(O)C(C)N(c1cc(Cl)ccc1F)S(=O)(=O)c1ccc(Cl)cc1 (single isomer, unassigned) [Example 20A]
11 | 200 to 5000 | C=CCCC(O)C(C)N(c1cc(Cl)ccc1F)S(=O)(=O)c1ccc(Cl)cc1 (single isomer, unassigned) [Example 20B]
12 | < 50 | C#CCC(O)[C@@H](C)N(c1cc(Cl)ccc1F)S(=O)(=O)c1ccc(Cl)cc1 (single isomer, unassigned) [Example 21A]
13 | < 50 | C#CCC(O)[C@@H](C)N(c1cc(Cl)ccc1F)S(=O)(=O)c1ccc(Cl)cc1 (single isomer, unassigned) [Example 21B]
14 | < 50 | C=CCC(O)[C@@H](C)N(c1cc(Cl)ccc1F)S(=O)(=O)c1ccc(Cl)cc1 (single isomer, unassigned) [Example 23A]
15 | < 50 | CCCC(O)[C@@H](C)N(c1cc(Cl)ccc1F)S(=O)(=O)c1ccc(Cl)cc1 (single isomer, unassigned) [Example 27A]

The remaining lines, values behind:

Row | Compound | IC50 [nM]
16 | CC(O)C[C@@H](C)N(c1cc(Cl)ccc1Cl)S(=O)(=O)c1ccc(Cl)cc1 (mixture of isomers) [Example 7] | 50 to 200
17 | CC(C)C(O)[C@@H](C)N(c1cc(Cl)ccc1Cl)S(=O)(=O)c1ccc(Cl)cc1 (mixture of isomers) [Example 10] | 200 to 5000
18 | CC(C)CC(O)[C@@H](C)N(c1cc(Cl)ccc1Cl)S(=O)(=O)c1ccc(Cl)cc1 (mixture of isomers) [Example 11] | 200 to 5000
19 | C[C@H](C(O)C1CCCC1)N(c1cc(Cl)ccc1Cl)S(=O)(=O)c1ccc(Cl)cc1 (mixture of isomers) [Example 12] | 200 to 5000
20 | C[C@H](C(O)C1CCCCC1)N(c1cc(Cl)ccc1Cl)S(=O)(=O)c1ccc(Cl)cc1 (mixture of isomers) [Example 13] | 200 to 5000
21 | C[C@H](C(O)c1ccccc1)N(c1cc(Cl)ccc1Cl)S(=O)(=O)c1ccc(Cl)cc1 (mixture of isomers) [Example 14] | 200 to 5000
22 | COc1ccc(C(O)[C@@H](C)N(c2cc(Cl)ccc2F)S(=O)(=O)c2ccc(Cl)cc2)cc1 (mixture of isomers) [Example 22] | 200 to 5000
23 | C[C@H](C(O)CC(=O)O)N(c1cc(Cl)ccc1F)S(=O)(=O)c1ccc(Cl)cc1 (mixture of isomers) [Example 24] | 50 to 200
24 | CC(C)CC(O)C[C@@H](C)N(c1cc(Cl)ccc1Cl)S(=O)(=O)c1ccc(Cl)cc1 (mixture of isomers) [Example 28] | 50 to 200
25 | C=CCCC(O)C[C@@H](C)N(c1cc(Cl)ccc1Cl)S(=O)(=O)c1ccc(Cl)cc1 (mixture of isomers) [Example 29] | 50 to 200
26 | C[C@H](CC(O)c1ccccc1)N(c1cc(Cl)ccc1Cl)S(=O)(=O)c1ccc(Cl)cc1 (mixture of isomers) [Example 30] | 50 to 200
27 | C=CCC(O)[C@@H](C)N(c1cc(Cl)ccc1Cl)S(=O)(=O)c1ccc(Cl)cc1 (single isomer, unassigned) [Example 5A] | 50 to 200
28 | C=CCC(O)[C@@H](C)N(c1cc(Cl)ccc1Cl)S(=O)(=O)c1ccc(Cl)cc1 (single isomer, unassigned) [Example 5B] | 200 to 5000
29 | CCCC(=O)OC(CCC)[C@@H](C)N(c1cc(Cl)ccc1F)S(=O)(=O)c1ccc(Cl)cc1 (single isomer, unassigned) [Example 8] | 50 to 200
